Laboratory results published in patent US20220313728A1 (priority 2021, published 2022).
“Also recorded” adds a separate entry of the source.

Legend:
[1] = tested on: adult and geriatric patients, milder depression; experiment: Gibbons et al. 2012 synthesis of 37 placebo controlled double-blind randomized trials, HDRS-17 outcome; assay type: in vivo, human; conditions: 6 weeks; converted from HDRS-17 with the 24% increased range of the 21 item scale; pooled fluoxetine and venlafaxine
[2] = tested on: adult and geriatric patients, milder depression; conditions: 6 weeks; pooled data of 37 trials of fluoxetine and venlafaxine; cited from earlier work
[3] = tested on: patients with severe TRMD; experiment: Phase 2 double-blind randomized placebo-controlled crossover trial, single 1-hour inhalation; Hamilton Depression Rating Scale (HDRS-21, primary outcome); assay type: in vivo, human; conditions: for Estimated difference between 25% and placebo (HDRS-21) / Estimated difference between 50% and placebo (HDRS-21): single 1-hour inhalation; for Difference vs placebo (HDRS-21): 2 weeks, following a single treatment; for Estimated difference between 50% and 25% (HDRS-21): 50% vs 25% nitrous oxide; for Patients in remission (HDRS ≤7 points) / Patients with treatment response (reduction in HDRS-21 points ≥50%): pre-treatment HDRS-21 >19; for Estimated difference between placebo and the combined 25% and 50% groups (HDRS-21): combined 25% and 50% nitrous oxide
Text: (§1) The study was a single-center, double-blind, randomized placebo-controlled crossover trial. All subjects underwent three one-hour inhalation sessions in random order, each separated by at least 4 weeks. The sessions included: placebo (0% N20), 25% N20, and 50% N20 balanced with air/oxygen. Blinding was executed by separating locations and teams for inhalation treatments and psychiatric evaluations. Only the anesthesia team administering the inhalation treatments was aware of study group assignment; all other participants, including patients and raters, were blinded. Likewise, the study setup was identical for all sessions, and gas flow meters were concealed, making inadvertent unblinding unlikely. The study was approved by the Washington University in St. Louis Institutional Review Board, and all patients provided written, informed consent. The trial was registered at clinicaltrials.gov (NCT03283670).
Patients were recruited from an existing database of TRMD patients identified through participation in a secondary referral clinic for TRMD at Washington University Department of Psychiatry, as well as from the “Volunteers for Health” patient pool (individuals with various medical/psychiatric conditions who volunteer to participate in clinical research) within Washington University School of Medicine. […] Patients were instructed to continue their current standard of care MDD treatment and to maintain a stable psychotropic medication dosage or psychotherapy regimen for 4 weeks prior to initiation of the study and throughout the study. Further, patients were instructed not to modify their antidepressant treatments during the three month course of the trial (i.e., discouraged from adding new antidepressants or modifying existing antidepressant dosages).
Following the in-person screen, each of the three treatment sessions consisted of […]: pre-inhalation mood assessment, inhalation, and post-inhalation follow-up sessions at 22-28 hours, 1 week, and 2 weeks. An additional assessment was completed 4 weeks following the final inhalation treatment.
(§2) All three inhalation sessions were scheduled for one hour. […] Except for the choice of inhalational gas admixture, treatment sessions were otherwise identical. The gas mix was administered via a standard anesthesia facemask through tubing connected to the anesthesia machine or an FDA-approved Porter/Praxair MXR breathing circuit. A small sample connector line was inserted into the facemask allowing the measurement of inhaled and exhaled gas concentrations. […] Patients were monitored during and after the treatment according to American Society of Anesthesiologists standards which include continuous 3-lead ECG, pulse oximetry, non-invasive blood pressure, and end tidal CO2 measurement under the supervision of an attending-level anesthesiologist. After the one-hour treatment session, patients were monitored in a recovery room for up to one hour at which time a study team physician determined whether the patient met criteria for discharge.
(§3) Data were collected at (a) baseline (prior to each inhalation session), (b) 2-hours, (c) 24 hours, (d) 1 week, and (e) 2 weeks after inhalation. Efficacy of the inhalation treatment on mood was measured using the following: Hamilton Depression Rating Scale 21-item (HDRS-21; primary outcome); Montgomery-Asberg Depression Rating Scale (MADRS); Quick Inventory of Depressive Symptomology-Self Report (QIDS-SR); and the Profile of Mood States 2nd Edition (POMS-2). Other behavioral assessments included an assessment of dissociation, the Clinical Administered Dissociative States Scale 28-item (CADSS-28); and an assessment for the emergence of psychosis, the Brief Psychiatric Rating Scale 18-item (BPRS-18). These mood and behavioral assessments were performed by a blinded member of the psychiatry study team. Additionally, adequacy of the blind was assessed by a Blinding Questionnaire given after completion of each inhalation session.

[4] = tested on: patients with severe TRMD; experiment: Same trial; Montgomery-Asberg Depression Rating Scale (MADRS); assay type: in vivo, human; conditions: 25% nitrous oxide
Text: (§4) The trial was registered at clinicaltrials.gov (NCT03283670).
(§5) Patients were recruited from an existing database of TRMD patients identified through participation in a secondary referral clinic for TRMD at Washington University Department of Psychiatry, as well as from the “Volunteers for Health” patient pool (individuals with various medical/psychiatric conditions who volunteer to participate in clinical research) within Washington University School of Medicine. Inclusion criteria were a) adults 18-75 years of age; b) current diagnosis of unipolar major depressive disorder (MDD) without psychosis as confirmed by the Mini International Neuropsychiatric Interview; c) a score of ≥19 on the Montgomery-Asberg Depression Rating Scale (MADRS); d) documented lifetime failure to respond to ≥3 adequate dose/duration antidepressant treatment trials, including ≥1 antidepressant medication failure(s) in the current depressive episode; and e) good command of the English language. […] Patients were instructed to continue their current standard of care MDD treatment and to maintain a stable psychotropic medication dosage or psychotherapy regimen for 4 weeks prior to initiation of the study and throughout the study. […]

[5] = tested on: patients with severe TRMD; experiment: Same trial; Quick Inventory of Depressive Symptomology-Self Report (QIDS-SR); assay type: in vivo, human
Text: as §4, §5

[6] = tested on: patients with severe TRMD; experiment: Same trial; Profile of Mood States 2nd Edition (POMS-2); assay type: in vivo, human
Text: as §4, §5

[7] = tested on: patients with severe TRMD; experiment: Same trial; treatment safety, monitoring of adverse events; conditions: for Stomach virus: >24 hours after inhalation session, count (%)
Text: as §1, §2
as §3, with “session. Treatment safety was assessed by monitoring adverse events (AEs) related to (a) cardiovascular status; (b) respiratory function; (c) central nervous system; and (d) psychiatric symptoms, particularly the presence of psychotic symptoms.” for “session.”
Finally, we also tested for a linear dose-response relation. Differences between categorical outcomes (response, remission) were tested by Fisher-Exact test; relative risk and 95% confidence intervals were calculated using the Koopman asymptotic score. Differences in the count of adverse events were compared by the Kruskal-Wallis test. All reported p-values are two-sided and a p-value of <0.05 was considered statistically significant. All analyses were conducted using SuperMix (Scientific Software International, Lincolnwood Ill.).

[8] = tested on: patients with TRMD; conditions: 50% nitrous oxide, one one-hour inhalation; cited from earlier work
[9] = tested on: Major Depressive Disorder; conditions: 50% nitrous oxide; cited from earlier work
[10] = tested on: bothersome tinnitus; conditions: similar clinical trial; 85% of patients correctly guessed the treatment arm; cited from earlier work
[11] = after 50% nitrous oxide, 5/12 patients

## CNCCC(Oc1ccc(C(F)(F)F)cc1)c1ccccc1 (centres unmarked) [fluoxetine]
[1]
  Equivalent difference on the HDRS-21: −3.16 unit
[2]
  Estimated separation between active treatment and placebo control (HDRS-17): −2.55 HDRS-17 units

## [N-]=[N+]=O [nitrous oxide]
[3]; 25% nitrous oxide, 2 hours
  Estimated difference between 25% and placebo (HDRS-21): −0.75 points
  Effect size d, 25% vs placebo (HDRS-21): 0.16
[3]; 25% nitrous oxide, 24 hours
  Estimated difference between 25% and placebo (HDRS-21): −1.41 points
  Effect size d, 25% vs placebo (HDRS-21): 0.21
[3]; 25% nitrous oxide, week 1
  Estimated difference between 25% and placebo (HDRS-21): −4.35 points
  Effect size d, 25% vs placebo (HDRS-21): 0.38
[3]; 25% nitrous oxide, week 2
  Estimated difference between 25% and placebo (HDRS-21): −5.19 points
  Effect size d, 25% vs placebo (HDRS-21): 0.62
[3]; 25% nitrous oxide
  Difference vs placebo (HDRS-21): −5.19 units
[3]; 50% nitrous oxide, 2 hours
  Estimated difference between 50% and placebo (HDRS-21): −0.87 points
  Effect size d, 50% vs placebo (HDRS-21): 0.29
[3]; 50% nitrous oxide, 24 hours
  Estimated difference between 50% and placebo (HDRS-21): −1.93 points
  Effect size d, 50% vs placebo (HDRS-21): 0.32
[3]; 50% nitrous oxide, week 1
  Estimated difference between 50% and placebo (HDRS-21): −2.44 points
  Effect size d, 50% vs placebo (HDRS-21): 0.35
[3]; 50% nitrous oxide, week 2
  Estimated difference between 50% and placebo (HDRS-21): −7.00 points
  Effect size d, 50% vs placebo (HDRS-21): 0.85
[3]; 50% nitrous oxide
  Difference vs placebo (HDRS-21): −7.00 HDRS-21 units
[3]; 2 hours
  Estimated difference between 50% and 25% (HDRS-21): 0.11 points
  Estimated difference between placebo and the combined 25% and 50% groups (HDRS-21): −0.81 points
[3]; 24 hours
  Estimated difference between 50% and 25% (HDRS-21): 0.42 points
  Estimated difference between placebo and the combined 25% and 50% groups (HDRS-21): −1.67 points
[3]; week 1
  Estimated difference between 50% and 25% (HDRS-21): 1.91 points
  Estimated difference between placebo and the combined 25% and 50% groups (HDRS-21): −3.35 points
[3]; week 2
  Estimated difference between 50% and 25% (HDRS-21): −1.67 points
  Estimated difference between placebo and the combined 25% and 50% groups (HDRS-21): −6.13 points
  Dose-response relation (HDRS-21 decrease): −3.51 per 25% increase in dose
[3]; after 25% nitrous oxide, 2/9 patients
  Patients in remission (HDRS ≤7 points): 22.2%
[3]; after 25% nitrous oxide, 3/9 patients
  Patients with treatment response (reduction in HDRS-21 points ≥50%): 33.3%
[3]; [11]
  Patients in remission (HDRS ≤7 points): 41.7%
  Patients with treatment response (reduction in HDRS-21 points ≥50%): 41.7%
[3]; entire 3-month course (25%, 50% nitrous oxide and placebo sessions), completers n=20, baseline median 20.5
  Median HDRS-21 score at study completion: 8.5 (IQR 2.0-16.0)
[3]; entire 3-month course (25%, 50% nitrous oxide and placebo sessions), n=20, IQR −3.3 to −14.0
  Median change in HDRS-21 from baseline to study completion: −11.0 points
[3]; entire 3-month course, n=20, 8/20
  Patients in remission at study completion (HRDS≤7 points): 40%
[3]; entire 3-month course, n=20, 11/20
  Patients with treatment response at study completion (reduction in HRDS-21 points ≥50%): 55%
[3]; entire 3-month course, n=20, 17/20
  Patients with improvement in depressive symptoms by at least one category at study completion: 85%
[3]; entire 3-month treatment regimen with 2 treatments with nitrous oxide
  Median reduction of HDRS-21: 11 HDRS-21 points
[4]
  MADRS efficacy: not significant
[5]; 25% nitrous oxide
  Results on the QIDS scale: non-significant; also recorded: not statistically significant
[5]; 50% nitrous oxide, except at 2 weeks
  Results on the QIDS scale: not statistically significant
[6]; 25% nitrous oxide
  Results on the POMS scale: non-significant
[6]; 50% nitrous oxide
  Results on the POMS scale: significant at 2 weeks
[7]; 25% N2O (n = 20)
  Stomach virus: 0
[7]; 50% N2O (n = 23)
  Stomach virus: 0
[7]; human, in vivo
  Car Crash (minor): 1 (4%)
  Fainting Spell: 1 (4%)
  Haziness: 3 (13%)
[7]; human, in vivo, 1 h
  Haziness: 1(5%)
[7]; in vivo
  Serious adverse events: None
[8]
  Effect on depressive symptoms in patients with TRMD (earlier study): improved depressive symptoms; also recorded: rapid antidepressant effects
[9]
  Persistence of efficacy after a single inhalation (case report): beyond one month
[10]
  Treatment effect for bothersome tinnitus: did not observe a treatment effect

## COc1ccc(C(CN(C)C)C2(O)CCCCC2)cc1 (centres unmarked) [venlafaxine]
[1]
  Equivalent difference on the HDRS-21: −3.16 unit
[2]
  Estimated separation between active treatment and placebo control (HDRS-17): −2.55 HDRS-17 units
